“Also recorded” adds a separate entry of the source.

Experiment [1] has as its system ECC-1 endometrial cancer cells. In words: ECC-1 cell proliferation assay ([3H]thymidine incorporation into DNA). The following applies: for inhibition of estradiol-induced cell proliferation / inhibition of genistein-induced cell proliferation: FIG. 4. Format: cell-based, human. The procedure: The human endometrial cancer (estrogen dependent) cell line ECC-1 was developed by Dr. […] University, PA, U.S.A, and generously provided to us by Dr. R. Oregan, Norwestern University, Chicago, Ill., U.S.A. Human mammary cancer cell lines MCF-7 (estrogen dependent) and MDA-231 (hormone independent) were obtained from the American Type Culture Collection (Rockville, Md., U.S.A.). Cells were cultured in DMEM containing penicillin (100 U/ml), streptomycin (0.1 mg/ml)) nystatin (12.5 μg/ml), insulin (0.6 μg/ml), and 10% FCS. Cells were stripped of endogenous steroids according to the procedure of Vignon et al. (1987, Biochem. Biophys. Res. Comm., 146:1502-8) by sucessive passages in medium without phenol red containing 10% and then 3% of charcoal-stripped FCS. Cells were seeded into 96 multiwell plates (5,000 cells per well) in DMEM containing 3% of charcoal-stripped FCS. After one day the medium was changed to one containing the solubilized carotenoid or THF alone. The medium was changed daily to ensure a continuous supply of carotenoid. After incubation, the number of cells and the rate of cell proliferation were estimated by the incorporation of [^3H]thymidine incorporation into cellular DNA, as described in U.S. Pat. No. 5,827,900. Cell growth was also measured by direct cell counting with a Coulter counter after trypsinization and dilution in Isotone-II (Coulter Electronics, Luton, England). A good correlation was found between the two methods. ECC-1 cells were incubated with increasing concentrations of the isoflavones genistein and daidzein, the two primary isoflavones in soy products, and with soy extract. Cell proliferation after three days was measured by [^3H]thymidine incorporation into DNA (FIG. 1, panel A). […] ECC-1 cells were also incubated with a single high concentration (40 μM) of each of genistein, daidzein and soy extract and cell proliferation was assayed daily over the course of three days.
For orientation: Dividing cells build labelled thymidine or BrdU into new DNA.

Experiment [2] concerns estrogen receptor-positive human breast cancer cell lines. As to conditions: approximately 0.1 to 10 μM; not in estrogen receptor negative lines; cited from earlier work.
Experiment [3] relates to MCF-7 mammary cancer cells (estrogen dependent). Briefly: MCF-7 cell proliferation assay ([3H]thymidine incorporation). The format is cell-based, human. The following applies: for inhibition of phytoestrogen-induced cell proliferation: genistein 4 μM. On the procedure: (§1) The human endometrial cancer (estrogen dependent) cell line ECC-1 was developed by Dr. P. G. Satyaswaroop, Pennslyvania State University, PA, U.S.A, and generously provided to us by Dr. R. Oregan, Norwestern University, Chicago, Ill., U.S.A. Human mammary cancer cell lines MCF-7 (estrogen dependent) and MDA-231 (hormone independent) were obtained from the American Type Culture Collection (Rockville, Md., U.S.A.).
(§2) Cells were cultured in DMEM containing penicillin (100 U/ml), streptomycin (0.1 mg/ml)) nystatin (12.5 μg/ml), insulin (0.6 μg/ml), and 10% FCS. Cells were stripped of endogenous steroids according to the procedure of Vignon et al. (1987, Biochem. Biophys. Res. Comm., 146:1502-8) by sucessive passages in medium without phenol red containing 10% and then 3% of charcoal-stripped FCS. Cells were seeded into 96 multiwell plates (5,000 cells per well) in DMEM containing 3% of charcoal-stripped FCS. After one day the medium was changed to one containing the solubilized carotenoid or THF alone. The medium was changed daily to ensure a continuous supply of carotenoid.
After incubation, the number of cells and the rate of cell proliferation were estimated by the incorporation of [^3H]thymidine incorporation into cellular DNA, as described in U.S. Pat. No. 5,827,900. Cell growth was also measured by direct cell counting with a Coulter counter after trypsinization and dilution in Isotone-II (Coulter Electronics, Luton, England).
The comparative effects of estradiol and genistein supplementation on the proliferation of the hormone-dependent cell lines MCF-7 mammary cancer and ECC-1 endometrial cancer were examined (FIG. 2).
MCF-7 mammary cancer cells were stimulated by genistein (4 μM) and test cultures were additionally supplemented with lycopene or phytoene or a combination of both, at either physiological concentrations (FIG. 6 panel A) or at about one order of magnitude greater than the physiological concentrations (FIG. 6 panel B).

In experiment [4] the test system is MDA-231 mammary cancer cells (hormone independent). Briefly: MDA-231 cell proliferation assay ([3H]thymidine incorporation). The format is cell-based, human. As to conditions: IGF-1 30 nM. The procedure: as §1, §2
After incubation, the number of cells and the rate of cell proliferation were estimated by the incorporation of [^3H]thymidine incorporation into cellular DNA, as described in U.S. Pat. No. 5,827,900. Cell growth was also measured by direct cell counting with a Coulter counter after trypsinization and dilution in Isotone-II (Coulter Electronics, Luton, England). A good correlation was found between the two methods.

[5] abbreviates: 40 μM, after one day of incubation, FIG. 1 panel B.
Setting [6] is: 0.4 and 4 μM, three days, FIG. 1 panel A.
[7] abbreviates: higher, non-physiological concentrations (≧10 μM), three days, FIG. 1 panel A.
[8] abbreviates: carotenoids at high, non-physiological concentrations (about one order of magnitude above physiological), FIG. 6 panel B.
The mark [9] stands for this setting: carotenoids at physiological concentrations, FIG. 6 panel A.
Where [10] appears, read: lycopene 3 to 5 μM, three days, FIG. 2.

Regarding `CC1=C(/C=C/C(C)=C/C=C/C(C)=C/C=C/C=C(C)/C=C/C=C(C)/C=C/C2=C(C)C(=O)[C@@H](O)CC2(C)C)C(C)(C)C[C@H](O)C1=O` [astaxanthin], the “inhibition of estradiol-induced cell proliferation” value in experiment [1] (estradiol 10 nM) is recorded as “effectively inhibited”. For the same compound, the “inhibition of genistein-induced cell proliferation” value in experiment [1] (genistein 1 μM) is “effective inhibitors; also recorded: effectively inhibited”.

For the compound `CC1=C(/C=C/C(C)=C/C=C/C(C)=C/C=C/C=C(C)/C=C/C=C(C)/C=C/C2=C(C)CCCC2(C)C)C(C)(C)CCC1` [beta-carotene], in experiment [1] (estradiol 10 nM), the “inhibition of estradiol-induced cell proliferation” value is given as “effectively inhibited”. Further, the “inhibition of genistein-induced cell proliferation” value in experiment [1] (genistein 1 μM) is on record as “effective inhibitors; also recorded: effectively inhibited”.

`COc1ccc(-c2coc3cc(O)cc(O)c3c2=O)cc1` [biochanin A]: the “effect on cell proliferation” value in experiment [2] was “induce cell proliferation”.

Regarding `O=c1oc2cc(O)ccc2c2oc3cc(O)ccc3c12` [counestrol], in experiment [2], the “effect on cell proliferation” value is given as “induce cell proliferation”.

Regarding `O=c1c(-c2ccc(O)cc2)coc2cc(O)ccc12` [daidzein, reference compound], the “effect on cell proliferation” value is given as “significantly increases cell proliferation; also recorded: stimulated cell proliferation” in experiment [1] (setting [5]), “significant increase in cell proliferation rate; also recorded: stimulated cell proliferation” in experiment [1] (setting [6]) and “only stimulatory” in experiment [1] (setting [7]).

In the case of `O=c1c(-c2ccc(O)cc2)coc2cc(O)cc(O)c12` [genistein, reference compound], the “stimulatory effect of genistein in the presence of IGF-1” value in experiment [3] (genistein about 0.4 to 4 μM plus IGF-1 30 nM, compared with genistein alone, FIG. 3 panel A) was “significantly increases the cell proliferation rate; also recorded: further augmented”. Also, the “effect of hormone alone on proliferation” value in experiment [3] (genistein increasing concentrations, estradiol 1 and 10 nM, FIG. 2) is “biphasic effects on proliferation”; in experiment [1] (genistein increasing concentrations, estradiol 1 and 10 nM, FIG. 1/2), “biphasic effects on proliferation”. For the same compound, the “effect on cell proliferation” value in experiment [1] (setting [5]) is reported as “significantly increases cell proliferation; also recorded: stimulated cell proliferation”; in experiment [1] (40 μM, second day in culture, FIG. 1 panel B) it was “inhibitory effects”; in experiment [1] (setting [6]), “significant increase in cell proliferation rate”; in experiment [1] (0.4 and 4 μM, three days, FIG. 1 panel A, listed as Genistein), “stimulated cell proliferation”; in experiment [1] (setting [7]) it was “inhibited cell proliferation”; in experiment [2], “induce cell proliferation”.

As for `O=c1c(O)c(-c2ccc(O)cc2)oc2cc(O)cc(O)c12` [kaempferl], the “effect on cell proliferation” value in experiment [2] is listed as “induce cell proliferation”.

On to `O=c1cc(-c2ccc(O)c(O)c2)oc2cc(O)cc(O)c12` [luiolin], for which the “effect on cell proliferation” value in experiment [2] was “induce cell proliferation”.

`CC(C)=CCC/C(C)=C/C=C/C(C)=C/C=C/C(C)=C/C=C/C=C(C)/C=C/C=C(C)/C=C/C=C(\C)CCC=C(C)C` [lycopene]: the “inhibition of phytoestrogen-induced cell proliferation” value in experiment [3] (setting [8]) is listed as “effective in significantly inhibiting”; in experiment [3] (setting [9]) it was “only marginally effective”. Besides, the “effect on IGF stimulation of proliferation” value in experiment [3] (lycopene 3 to 5 μM, IGF-1 30 nM, FIG. 3) was “inhibits IGF stimulation”; in experiment [4] (lycopene 3 to 5 μM, FIG. 3), “inhibits IGF stimulation”. In experiment [3] (lycopene 3 to 5 μM, genistein 0.4 to 4 μM, IGF-1 30 nM, FIG. 3 panel A), the “effect on cell proliferation stimulated by combined IGF-1 and genistein” value is “inhibits the cell proliferation”. Further, the “effect on basal growth” value in experiment [3] (setting [10]) and in experiment [1] (setting [10]) was “significantly inhibited” each time. In addition, the “effect on estrogen-induced (genistein or estradiol) growth” value in experiment [3] (setting [10]) and in experiment [1] (setting [10]) was “substantially inhibited; also recorded: significantly inhibited” in each case. Moreover, in experiment [1] (estradiol 10 nM), the “inhibition of estradiol-induced cell proliferation” value is listed as “effectively inhibited”. Besides, the “inhibition of estradiol-induced cell proliferation, dose dependence” value in experiment [1] (estradiol 10 nM, various lycopene concentrations (lowest 0.9 μM), FIG. 5) is “all lycopene concentrations tested were effective in inhibiting”. Moreover, the “inhibition of genistein-induced cell proliferation” value in experiment [1] (genistein 1 μM) was “effective inhibitors; also recorded: effectively inhibited”. Moreover, the “inhibition of genistein-induced cell proliferation, dose dependence” value in experiment [1] (genistein 1 μM, various lycopene concentrations (lowest 0.9 μM), FIG. 5) is on record as “all lycopene concentrations tested were effective in inhibiting”. The “cell proliferation relative to controls” value in experiment [4] (lycopene 3 to 5 μM, FIG. 3) is given as “reduced to levels less than that of controls”.

Turning to `CC(C)=CCC/C(C)=C/CC/C(C)=C/CC/C(C)=C/C=C/C=C(\C)CC/C=C(\C)CC/C=C(\C)CCC=C(C)C` [phytoene], the “inhibition of phytoestrogen-induced cell proliferation” value was “effective in significantly inhibiting” in experiment [3] (setting [8]) and “not effective” in experiment [3] (setting [9]). In addition, the “inhibition of genistein-induced cell proliferation” value in experiment [1] (genistein 1 μM) is listed as “effective inhibitors”.

Regarding “IGF-1: Human recombinant IGF-1 purchased from GroPep”, the “effect on cell growth” value in experiment [3] (IGF-1 30 nM, FIG. 3 panel A) is reported as “significantly stimulates cell growth”; in experiment [4] (FIG. 3 panel B) it was “significantly stimulates cell growth”.
